The target in series [1] is Voltage-dependent N-type calcium channel subunit alpha-1B (Homo sapiens) (UniProt Q00975). The series is described as follows: Inhibition of Calcium Channel N-Type at 10 µM in the Eurofins-Panlabs radioligand binding assay (Eurofins_assay_216000). As to conditions: Rattus norvegicus; Compound concentration 10.0 uM.
Series [2] addresses Sodium-dependent dopamine transporter (Homo sapiens) (UniProt Q01959). As to conditions: Compound concentration 10.0 uM.
The target in series [3] is T1, Proteinase-activated receptor 1 (Homo sapiens, UniProt P25116).
T1 sequence (P25116 whole entry): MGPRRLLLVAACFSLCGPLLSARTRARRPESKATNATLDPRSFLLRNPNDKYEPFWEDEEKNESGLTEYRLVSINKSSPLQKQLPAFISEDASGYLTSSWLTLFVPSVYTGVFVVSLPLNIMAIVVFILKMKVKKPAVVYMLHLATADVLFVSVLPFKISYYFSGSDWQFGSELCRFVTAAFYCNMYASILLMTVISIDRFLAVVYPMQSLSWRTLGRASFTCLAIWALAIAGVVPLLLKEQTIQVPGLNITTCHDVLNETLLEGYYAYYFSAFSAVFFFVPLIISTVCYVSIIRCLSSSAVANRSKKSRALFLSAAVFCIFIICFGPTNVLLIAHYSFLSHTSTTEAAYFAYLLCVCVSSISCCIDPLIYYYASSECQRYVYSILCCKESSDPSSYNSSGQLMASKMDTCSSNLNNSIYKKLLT
Put plainly: Binding assay (platelet membranes).

Series [4] is filed under the species Rattus norvegicus. The series is described as follows: Inhibition of Imidazoline I2, Central at 10 µM in the Eurofins-Panlabs radioligand binding assay (Eurofins_assay_241000). Set-up: ligand concentration 2 nM. As to conditions: Compound concentration 10.0 uM.
Series [5] has as its target Cysteinyl leukotriene receptor 1 (Homo sapiens) (UniProt Q9Y271). The series is described as follows: Inhibition of Leukotriene, Cysteinyl CysLT1 at 10 µM in the Eurofins-Panlabs radioligand binding assay (Eurofins_assay_250460). The arrangement: ligand concentration 0.3 nM, non-specific ligand with concentration 0.3 µM Leukotriene D4, incubation time 30 min, incubation temperature 25 °C. The conditions noted are these: Compound concentration 10.0 uM.

In series [6] the target is Mu-type opioid receptor (Homo sapiens) (UniProt P35372). Put plainly: my(MOP) (h) Eurofins-Cerep Cellular and Nuclear Receptor Functional Assays. The conditions noted are these: Compound concentration 10.0 uM.
Mu-type opioid receptor (Homo sapiens), sequence (P35372 whole entry): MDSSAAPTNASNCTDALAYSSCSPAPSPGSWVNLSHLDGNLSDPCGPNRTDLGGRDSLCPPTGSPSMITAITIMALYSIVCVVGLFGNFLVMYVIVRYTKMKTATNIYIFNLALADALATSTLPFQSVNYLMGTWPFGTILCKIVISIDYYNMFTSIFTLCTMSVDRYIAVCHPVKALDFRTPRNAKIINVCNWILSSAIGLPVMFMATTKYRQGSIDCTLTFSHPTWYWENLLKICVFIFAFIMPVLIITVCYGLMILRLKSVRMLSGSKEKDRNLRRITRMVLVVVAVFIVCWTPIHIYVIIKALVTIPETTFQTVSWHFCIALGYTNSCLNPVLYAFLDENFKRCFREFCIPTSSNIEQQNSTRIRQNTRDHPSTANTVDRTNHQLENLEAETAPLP
In series [7] the target is D(1A) dopamine receptor (Homo sapiens) (UniProt P21728). As to conditions: Compound concentration 10.0 uM.
D(1A) dopamine receptor (Homo sapiens), sequence (P21728 whole entry): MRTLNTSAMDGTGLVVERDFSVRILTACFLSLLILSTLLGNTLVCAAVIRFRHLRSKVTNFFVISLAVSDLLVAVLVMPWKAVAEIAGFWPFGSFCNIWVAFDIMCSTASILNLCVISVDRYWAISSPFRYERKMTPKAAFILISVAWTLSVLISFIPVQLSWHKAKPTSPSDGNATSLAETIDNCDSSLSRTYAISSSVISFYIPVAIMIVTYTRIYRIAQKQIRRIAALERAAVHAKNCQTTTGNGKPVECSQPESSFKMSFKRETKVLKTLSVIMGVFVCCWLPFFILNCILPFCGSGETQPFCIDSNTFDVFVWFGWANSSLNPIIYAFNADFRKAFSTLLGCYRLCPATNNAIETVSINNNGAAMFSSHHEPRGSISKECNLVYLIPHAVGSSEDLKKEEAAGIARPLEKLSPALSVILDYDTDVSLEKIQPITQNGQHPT
Another series is filed under the species Mus musculus. The series is described as follows: Inhibition of Interleukin IL-1 at 10 µM in the Eurofins-Panlabs radioligand binding assay (Eurofins_assay_243520). The arrangement: ligand concentration 0.1 nM. As to conditions: Compound concentration 10.0 uM.
The target in series [8] is Sigma non-opioid intracellular receptor 1 (Homo sapiens) (UniProt Q99720). The series is described as follows: Inhibition of Sigma 1 at 10 µM in the Eurofins-Panlabs radioligand binding assay (Eurofins_assay_278110). The arrangement: ligand concentration 8 nM. As to conditions: Compound concentration 10.0 uM.
Sigma non-opioid intracellular receptor 1 (Homo sapiens), sequence (Q99720 whole entry): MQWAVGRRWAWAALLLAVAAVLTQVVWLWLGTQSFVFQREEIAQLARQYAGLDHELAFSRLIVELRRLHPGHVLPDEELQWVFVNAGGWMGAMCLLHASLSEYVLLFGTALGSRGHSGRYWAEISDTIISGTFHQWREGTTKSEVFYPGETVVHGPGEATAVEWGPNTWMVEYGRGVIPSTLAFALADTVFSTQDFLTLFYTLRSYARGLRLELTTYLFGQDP
Series [9] has as its target voltage-gated sodium channel, site 2 (Rattus norvegicus, UniProt F1LQQ7+O08562+O88420+O88457+P04774+P04775+P08104+P15389+P15390+Q62968). The series is described as follows: Inhibition of Sodium Channel, Site 2 at 10 µM in the Eurofins-Panlabs radioligand binding assay (Eurofins_assay_279510). It is filed as protein assay. The arrangement: ligand concentration 5 nM, non-specific ligand with concentration 100 µM Veratridine, incubation time 60 min, incubation temperature 37 °C. The conditions noted are these: male, Wistar, rat whole brain (except cerebellum) membranes, probe [3H] Batrachotoxinin, compound concentration 10 uM.

The species entered for series [10] is Rattus norvegicus. The series is described as follows: Inhibition of Rolipram at 10 µM in the Eurofins-Panlabs radioligand binding assay (Eurofins_assay_268811). The format is protein assay. The arrangement: ligand concentration 1.8 nM. As to conditions: Compound concentration 10.0 uM.
In series [11] the target is Epidermal growth factor receptor (Homo sapiens) (UniProt P00533). The series is described as follows: Inhibition of Epidermal Growth Factor (EGF) at 10 µM in the Eurofins-Panlabs radioligand binding assay (Eurofins_assay_225510). As to conditions: Compound concentration 10.0 uM.
The target in series [12] is Sodium-dependent noradrenaline transporter (Homo sapiens) (UniProt P23975). The conditions noted are these: Compound concentration 10.0 uM.
Sodium-dependent noradrenaline transporter (Homo sapiens), sequence (P23975 whole entry): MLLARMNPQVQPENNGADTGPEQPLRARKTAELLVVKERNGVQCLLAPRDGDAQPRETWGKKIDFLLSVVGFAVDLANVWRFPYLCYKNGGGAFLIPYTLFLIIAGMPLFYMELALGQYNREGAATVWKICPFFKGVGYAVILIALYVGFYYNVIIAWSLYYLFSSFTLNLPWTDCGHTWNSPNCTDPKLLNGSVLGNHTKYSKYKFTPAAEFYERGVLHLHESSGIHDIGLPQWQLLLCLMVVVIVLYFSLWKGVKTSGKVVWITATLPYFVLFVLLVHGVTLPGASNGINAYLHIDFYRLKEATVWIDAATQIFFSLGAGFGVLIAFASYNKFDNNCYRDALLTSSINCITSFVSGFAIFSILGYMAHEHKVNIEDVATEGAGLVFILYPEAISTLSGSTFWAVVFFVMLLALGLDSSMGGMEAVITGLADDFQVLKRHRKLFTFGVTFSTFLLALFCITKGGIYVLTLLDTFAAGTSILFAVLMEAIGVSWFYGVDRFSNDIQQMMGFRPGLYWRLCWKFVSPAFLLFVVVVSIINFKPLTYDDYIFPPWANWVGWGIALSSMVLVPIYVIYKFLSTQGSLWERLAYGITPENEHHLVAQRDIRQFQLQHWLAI
For series [13], the species on record is Rattus norvegicus. The conditions noted are these: Compound concentration 10.0 uM.
The species entered for series [14] is Rattus norvegicus. The series is described as follows: Inhibition of Thyroid Hormone at 10 µM in the Eurofins-Panlabs radioligand binding assay (Eurofins_assay_285900). The format is protein assay. The conditions noted are these: Compound concentration 10.0 uM.
For series [15], the target named is Glucocorticoid receptor (Homo sapiens) (UniProt P04150). The series is described as follows: Glucocorticoid Eurofins-Panlabs radioligand binding assay. As to conditions: Compound concentration 10.0 uM.
Glucocorticoid receptor (Homo sapiens), sequence (P04150 whole entry): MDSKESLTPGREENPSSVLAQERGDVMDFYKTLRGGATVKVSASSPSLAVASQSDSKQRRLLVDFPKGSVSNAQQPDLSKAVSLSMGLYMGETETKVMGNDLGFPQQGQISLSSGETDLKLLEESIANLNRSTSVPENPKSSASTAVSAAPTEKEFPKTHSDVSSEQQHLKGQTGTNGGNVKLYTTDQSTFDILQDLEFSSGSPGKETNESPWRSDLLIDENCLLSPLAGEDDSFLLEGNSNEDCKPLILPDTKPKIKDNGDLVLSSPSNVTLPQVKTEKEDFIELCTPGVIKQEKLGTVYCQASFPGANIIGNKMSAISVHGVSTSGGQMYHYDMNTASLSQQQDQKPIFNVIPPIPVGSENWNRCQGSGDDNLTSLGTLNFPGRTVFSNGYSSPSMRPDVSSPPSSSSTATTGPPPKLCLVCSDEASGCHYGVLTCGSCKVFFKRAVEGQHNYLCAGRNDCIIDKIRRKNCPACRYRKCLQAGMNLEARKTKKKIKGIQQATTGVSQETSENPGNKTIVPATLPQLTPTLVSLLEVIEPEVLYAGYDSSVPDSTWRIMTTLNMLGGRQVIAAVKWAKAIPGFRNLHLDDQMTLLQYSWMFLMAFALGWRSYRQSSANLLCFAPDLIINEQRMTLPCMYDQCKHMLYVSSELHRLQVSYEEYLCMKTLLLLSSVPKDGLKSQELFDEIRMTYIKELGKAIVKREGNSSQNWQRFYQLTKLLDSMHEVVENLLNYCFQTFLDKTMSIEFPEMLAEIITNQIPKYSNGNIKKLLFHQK
The species named for series [16] is Rattus norvegicus. The series is described as follows: Testosterone Eurofins-Panlabs radioligand binding assay. Set-up: ligand concentration 1.5 nM. The conditions noted are these: Compound concentration 10.0 uM.
In series [17] the target is Melatonin receptor type 1A (Homo sapiens) (UniProt P48039). The series is described as follows: Inhibition of Melatonin MT1 at 10 µM in the Eurofins-Panlabs radioligand binding assay (Eurofins_assay_251600). Set-up: ligand concentration 0.05 nM. As to conditions: Compound concentration 10.0 uM.
Series [18] addresses Neuropeptide Y receptor type 2 (Homo sapiens) (UniProt P49146). Put plainly: Inhibition of Neuropeptide Y Y2 at 10 µM in the Eurofins-Panlabs radioligand binding assay (Eurofins_assay_257110). The conditions noted are these: Compound concentration 10.0 uM.
Series [19] concerns the target GABA-A receptor; anion channel (Rattus norvegicus) (UniProt O09028+P15431+P18506+P18508+P19969+P20236+P23574+P23576+P28471+P28473+P30191+P62813+P63079+P63138+Q91ZM7+Q9ES14). The series is described as follows: Inhibition of GABAA, Muscimol, Central at 10 µM in the Eurofins-Panlabs radioligand binding assay (Eurofins_assay_226500). It is filed as protein-complex assay. As to conditions: Compound concentration 10.0 uM.

Series [20] addresses T2, Alpha-1A adrenergic receptor (Homo sapiens) (UniProt P35348).
T2 sequence (whole entry): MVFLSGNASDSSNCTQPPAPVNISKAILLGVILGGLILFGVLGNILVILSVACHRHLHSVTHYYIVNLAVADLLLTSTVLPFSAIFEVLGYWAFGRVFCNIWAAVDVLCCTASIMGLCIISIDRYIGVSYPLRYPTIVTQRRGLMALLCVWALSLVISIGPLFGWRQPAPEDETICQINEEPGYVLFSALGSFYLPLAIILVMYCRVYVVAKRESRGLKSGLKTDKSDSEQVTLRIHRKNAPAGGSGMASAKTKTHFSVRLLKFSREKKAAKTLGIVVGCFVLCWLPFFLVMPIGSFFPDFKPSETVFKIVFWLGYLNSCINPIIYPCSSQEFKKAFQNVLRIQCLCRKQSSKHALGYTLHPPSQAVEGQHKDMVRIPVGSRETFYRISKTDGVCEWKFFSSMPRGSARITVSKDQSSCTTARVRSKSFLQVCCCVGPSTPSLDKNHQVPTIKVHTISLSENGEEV
As to conditions: Rattus norvegicus; Compound concentration 10.0 uM.

The target of series [21] is Endothelin receptor type B (Homo sapiens) (UniProt P24530). The conditions noted are these: Compound concentration 10.0 uM.
Endothelin receptor type B (Homo sapiens), sequence (P24530 whole entry): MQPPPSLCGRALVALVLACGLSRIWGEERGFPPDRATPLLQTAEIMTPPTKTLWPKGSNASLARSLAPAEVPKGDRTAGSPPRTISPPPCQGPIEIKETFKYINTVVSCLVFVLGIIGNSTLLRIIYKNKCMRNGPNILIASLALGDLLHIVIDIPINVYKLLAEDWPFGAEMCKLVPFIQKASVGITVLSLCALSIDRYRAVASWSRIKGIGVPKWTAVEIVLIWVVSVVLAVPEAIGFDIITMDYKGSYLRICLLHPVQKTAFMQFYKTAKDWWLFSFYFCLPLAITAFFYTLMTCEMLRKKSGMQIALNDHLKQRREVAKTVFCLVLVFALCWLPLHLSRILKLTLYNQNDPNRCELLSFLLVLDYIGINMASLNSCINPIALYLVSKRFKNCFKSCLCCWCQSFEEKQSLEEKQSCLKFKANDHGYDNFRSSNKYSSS
Series [22] is filed under the species Rattus norvegicus. The series is described as follows: Inhibition of Glutamate, NMDA, Phencyclidine at 10 µM in the Eurofins-Panlabs radioligand binding assay (Eurofins_assay_233000). The format is protein-complex assay. As to conditions: Compound concentration 10.0 uM.
Series [23] concerns the target Adenosine receptor A2a (Homo sapiens) (UniProt P29274). The conditions noted are these: Compound concentration 10.0 uM.
The target of series [24] is 5-hydroxytryptamine receptor 3A (Homo sapiens) (UniProt P46098). The conditions noted are these: Compound concentration 10.0 uM.
5-hydroxytryptamine receptor 3A (Homo sapiens), sequence (P46098 whole entry): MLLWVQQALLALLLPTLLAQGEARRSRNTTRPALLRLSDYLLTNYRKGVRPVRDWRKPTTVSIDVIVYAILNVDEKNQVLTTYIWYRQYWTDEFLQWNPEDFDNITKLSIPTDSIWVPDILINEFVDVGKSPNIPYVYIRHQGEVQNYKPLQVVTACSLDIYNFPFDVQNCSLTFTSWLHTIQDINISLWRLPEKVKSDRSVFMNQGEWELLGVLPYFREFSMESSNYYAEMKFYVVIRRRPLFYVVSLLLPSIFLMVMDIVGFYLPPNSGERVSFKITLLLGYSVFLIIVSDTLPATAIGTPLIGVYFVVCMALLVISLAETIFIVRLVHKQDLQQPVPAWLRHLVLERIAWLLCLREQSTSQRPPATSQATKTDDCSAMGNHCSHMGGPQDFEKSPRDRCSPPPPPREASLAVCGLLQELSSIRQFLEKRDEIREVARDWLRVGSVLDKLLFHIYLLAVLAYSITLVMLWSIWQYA
Series [25] has as its target Beta-3 adrenergic receptor (Homo sapiens) (UniProt P13945). As to conditions: Compound concentration 10.0 uM.
Series [26] has as its target 5-hydroxytryptamine receptor 1E (Homo sapiens) (UniProt P28566). The conditions noted are these: Compound concentration 10.0 uM.

Active and inactive are the calls of the source. The calls are words filed in the database; no cut-off is given here.

Adenosine receptor A2a (Homo sapiens), sequence (P29274 whole entry): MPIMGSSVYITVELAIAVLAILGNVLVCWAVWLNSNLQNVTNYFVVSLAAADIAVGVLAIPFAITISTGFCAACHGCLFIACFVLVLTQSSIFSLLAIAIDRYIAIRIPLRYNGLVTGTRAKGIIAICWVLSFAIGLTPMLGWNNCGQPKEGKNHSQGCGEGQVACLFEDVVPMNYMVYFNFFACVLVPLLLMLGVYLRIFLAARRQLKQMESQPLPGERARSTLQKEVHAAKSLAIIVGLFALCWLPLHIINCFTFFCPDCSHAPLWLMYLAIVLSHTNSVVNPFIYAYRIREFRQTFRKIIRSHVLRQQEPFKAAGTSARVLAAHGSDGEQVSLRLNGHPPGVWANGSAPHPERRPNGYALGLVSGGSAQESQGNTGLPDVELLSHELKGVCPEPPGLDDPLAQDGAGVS
Beta-3 adrenergic receptor (Homo sapiens), sequence (P13945 whole entry, looked up): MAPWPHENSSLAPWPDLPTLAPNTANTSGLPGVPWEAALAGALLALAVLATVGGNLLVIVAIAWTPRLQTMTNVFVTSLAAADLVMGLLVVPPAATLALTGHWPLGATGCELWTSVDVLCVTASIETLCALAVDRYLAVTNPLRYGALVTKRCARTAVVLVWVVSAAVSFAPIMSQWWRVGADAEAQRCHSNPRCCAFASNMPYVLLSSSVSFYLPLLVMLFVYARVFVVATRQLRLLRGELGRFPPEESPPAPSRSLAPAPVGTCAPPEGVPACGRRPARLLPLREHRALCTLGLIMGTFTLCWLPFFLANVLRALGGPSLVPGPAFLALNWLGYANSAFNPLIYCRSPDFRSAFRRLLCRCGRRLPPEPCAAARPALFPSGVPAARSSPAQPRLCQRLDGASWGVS
5-hydroxytryptamine receptor 1E (Homo sapiens), sequence (P28566 whole entry): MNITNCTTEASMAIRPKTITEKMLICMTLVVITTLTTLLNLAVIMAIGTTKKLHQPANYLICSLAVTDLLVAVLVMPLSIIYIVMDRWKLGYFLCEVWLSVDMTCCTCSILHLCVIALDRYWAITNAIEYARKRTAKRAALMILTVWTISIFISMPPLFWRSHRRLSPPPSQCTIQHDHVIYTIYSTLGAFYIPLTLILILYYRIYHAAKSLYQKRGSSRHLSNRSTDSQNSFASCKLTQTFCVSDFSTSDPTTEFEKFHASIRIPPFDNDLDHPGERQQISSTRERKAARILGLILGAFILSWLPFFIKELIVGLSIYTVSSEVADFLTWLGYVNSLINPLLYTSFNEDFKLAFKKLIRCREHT
Cysteinyl leukotriene receptor 1 (Homo sapiens), sequence (Q9Y271 whole entry): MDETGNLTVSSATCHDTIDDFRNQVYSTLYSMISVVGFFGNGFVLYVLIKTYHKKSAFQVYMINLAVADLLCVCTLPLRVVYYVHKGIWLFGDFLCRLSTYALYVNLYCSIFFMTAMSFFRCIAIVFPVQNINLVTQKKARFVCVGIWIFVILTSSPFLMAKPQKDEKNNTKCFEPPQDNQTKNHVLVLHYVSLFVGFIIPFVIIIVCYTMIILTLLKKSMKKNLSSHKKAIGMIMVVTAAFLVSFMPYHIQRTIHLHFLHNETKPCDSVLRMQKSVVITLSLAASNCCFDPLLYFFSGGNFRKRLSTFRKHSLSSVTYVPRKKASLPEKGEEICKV

In general, inhibition refers to the drop in the measured response relative to a control, in per cent. As usually defined, the IC50 is the concentration that gives 50% inhibition. Take `O=C(N1CCS(=O)(=O)CC1)N1C[C@H](c2ccc(OC(F)(F)F)cc2)C[C@H](c2nc(C3CC3)no2)C1` [BAY-386]: the inhibition is 3% in [1]; 10% in [2]; 0% in the series filed under Rattus norvegicus [4]; 1% in [5]; 4% in [7]; 16% in the series filed under Mus musculus. The inhibition is 16% in series [8]; 3% in the series filed under Rattus norvegicus [10]; -7% in series [11]; -1.24% in series [12]; 14% in the series listed under Rattus norvegicus [13]; 11% in the series listed under Rattus norvegicus [14]. For the same molecule, the inhibition in series [15] is 9%; in the series filed under Rattus norvegicus [16] it was 11%; in series [17], 14%; in series [18], 2%; in series [19] it was 10%; in series [20], 1%. Moreover, the inhibition in series [21] is -4%; in the series filed under Rattus norvegicus [22], 0%; in series [23] it was 0%. For the same molecule, the IC50 in series [3] is 56 nM (active). The % Inhibition of Control Agonist Response (Mean n=2) in [6] was 3.7%. In series [6], this molecule showed a % of Control Agonist Response (Mean n=2) of 1%. Moreover, the inhibition at 60 min, 10 µM in series [9] came out at 55%.
With `Cc1noc([C@H]2C[C@@H](c3ccc(C(F)(F)F)cc3)CN(C(=O)N3CCS(=O)(=O)C3)C2)n1` [BAY-448], the figures for the inhibition in series [24], in [25] and in series [26] were 12.8%, 19.3% and 21.5%, respectively.

These data come from ChEMBL document CHEMBL4507269, “Data for DCP probe BAY-386” (2021).
